Earlier results on one molecule are cited in patent US20160176819A1, “ASYMMETRICALLY CHARGED NIR FLUOROPHORES” (Washington University, priority 2014, published 2016).

“And” between values parts separate entries of the source, which are not always exact repeats. Equal entries are not always repeated.

For data set [1] the following is noted: reference value; cited from earlier work.
For data set [2] the following is noted: ICG in DMSO, literature values; cited from earlier work.

With `CC1(C)C(/C=C/C=C/C=C/C=C2\N(CCCCS(=O)(=O)O)c3ccc4ccccc4c3C2(C)C)=[N+](CCCCS(=O)(=O)[O-])c2ccc3ccccc3c21` [ICG, indocyanine green], the “QY of the reference” value in data set [1] is listed as 23%. The “fluorescence quantum yield of the reference” value in data set [2] is 0.12 and 0.22.
